Our source for the inhibition values is ChEMBL document CHEMBL3727366, “Heterocyclic compounds for the treatment of stress-related conditions” (2013).

Active and inactive are the calls of the source. How the calls were made is not given here.

Assay [1] relates to Rattus norvegicus. Briefly: Inhibition of restraint stress-induced defecation in Wistar rat at 5 mL/kg, po dosed 1 or 2 hrs before restraint stress. It counts as functional, organism-based.
Assay [2] concerns Rattus norvegicus. Briefly: Inhibition of tail-pinch stress-induced feeding behavior in Wistar rat at 5 mL/kg, po dosed 1 or 2 hrs before tail-pinch stimulus. It counts as functional, organism-based.

Take `CC#CCn1c(N[C@@H](C)c2ccc(C(F)(F)F)cc2)nc2c(c1=O)CN(C(=O)c1ccc(-c3cnco3)cc1)CC2`: the inhibition result in assay [1] and in assay [2] was “Active” throughout.

For `CC#CCn1c(N[C@@H](C)c2ccc(C(F)(F)F)cc2)nc2c(c1=O)CN(C(=O)c1ccc3c(c1)CCC(=O)N3)CC2`, the inhibition entry in assay [1] and in assay [2] was “Active” in each case.

As for `C=Cc1ccc(C(=O)N2CCc3nc(N[C@@H](C)c4ccc(C(F)(F)F)cc4)n(OC)c(=O)c3C2)cc1`, the inhibition result in assay [1] and in assay [2] was “Active” each time.

Consider `COn1c(N[C@@H](C)c2ccc(C(F)(F)F)cc2)nc2c(c1=O)CN(C(=O)c1ccc(Cl)cc1)CC2`, for which the inhibition entry in assay [1] and in assay [2] was “Active” throughout.

`C#CCn1c(N[C@@H](C)c2ccc(C(F)(F)F)cc2)nc2c(c1=O)CN(C(=O)c1c(F)cccc1F)CC2`: the inhibition entry in assay [1] and in assay [2] was “Active” each time.

For the compound `COn1c(N[C@@H](C)c2ccc(C(F)(F)F)cc2)nc2c(c1=O)CN(C(=O)c1ccc(OC(F)(F)F)cc1)CC2`, the inhibition entry in assay [1] and in assay [2] was “Active” each time.

For `CC#CCn1c(N[C@@H](C)c2ccc(C(F)(F)F)cc2)nc2c(c1=O)CN(C(=O)c1ccc3c(c1)OCO3)CC2`, the inhibition result in assay [1] and in assay [2] was “Active” throughout.

For `C[C@H](Nc1nc2c(c(=O)n1N(C)C)CN(C(=O)c1ccc(Cl)cc1)CC2)c1ccc(Cl)cc1`, the inhibition entry in assay [1] and in assay [2] was “Active” each time.

`COn1c(N[C@@H](C)c2ccc(C(F)(F)F)cc2)nc2c(c1=O)CN(C(=O)c1ccc(C#N)cc1)CC2`: the inhibition entry in assay [1] and in assay [2] was “Active” each time.

In the case of `COn1c(N2CCCC2c2ccc(C(F)(F)F)cc2)nc2c(c1=O)CN(C(=O)c1ccc(Cl)cc1)CC2` (configuration not stated), the inhibition result in assay [1] and in assay [2] was “Active” each time.

Turning to `C[C@H](Nc1nc2c(c(=O)n1N(C)C)CN(C(=O)c1ccc(Cl)cc1)CC2)c1ccc(C(F)(F)F)cc1`, the inhibition entry in assay [1] and in assay [2] was “Active” each time.

`C#CCCn1c(N[C@@H](C)c2ccc(C(F)(F)F)cc2)nc2c(c1=O)CN(C(=O)c1ccc(-n3ccnc3)cc1)CC2`: the inhibition result in assay [1] and in assay [2] was “Active” in each case.

For `C[C@H](Nc1nc2c(c(=O)n1N1CCOCC1)CN(C(=O)c1ccc(C#N)cc1)CC2)c1ccc(C(F)(F)F)cc1`, the inhibition entry in assay [1] and in assay [2] was “Active” throughout.

Regarding `COn1c(N[C@@H](C)c2ccc(Cl)cc2)nc2c(c1=O)CN(C(=O)c1cc3cccnc3s1)CC2`, the inhibition result in assay [1] and in assay [2] was “Active” throughout.

With `COn1c(N[C@@H](C)c2ccc(C(F)(F)F)cc2)nc2c(c1=O)CN(C(=O)c1ccc3c(c1)CCC(=O)N3C)CC2`, the inhibition entry in assay [1] and in assay [2] was “Active” each time.

Consider `C#CCCn1c(N[C@@H](C)c2ccc(C(F)(F)F)cc2)nc2c(c1=O)CN(C(=O)c1ccc(C#N)cc1F)CC2`, for which the inhibition result in assay [1] and in assay [2] was “Active” throughout.

As for `C#CCCn1c(N[C@@H](C)c2ccc(C(F)(F)F)cc2)nc2c(c1=O)CN(C(=O)c1ccc(-c3cnco3)cc1)CC2`, the inhibition result in assay [1] and in assay [2] was “Active” each time.

`CC#CCn1c(N[C@@H](C)c2ccc(C(F)(F)F)cc2)nc2c(c1=O)CN(C(=O)c1ccc3cccnc3c1)CC2`: the inhibition entry in assay [1] and in assay [2] was “Active” in each case.

Turning to `COn1c(N[C@@H](C)c2ccc(C(F)(F)F)cc2)nc2c(c1=O)CN(C(=O)c1cnc3ccccc3c1)CC2`, the inhibition result in assay [1] and in assay [2] was “Active” throughout.

Consider `COn1c(NCc2ccc(C(F)(F)F)cc2)nc2c(c1=O)CN(C(=O)c1ccc(Cl)cc1)CC2`, for which the inhibition entry in assay [1] and in assay [2] was “Active” each time.

For the compound `C#CCn1c(N[C@@H](C)c2ccc(C(F)(F)F)cc2)nc2c(c1=O)CN(C(=O)c1cccc(C#N)c1)CC2`, the inhibition entry in assay [1] and in assay [2] was “Active” each time.

For `C[C@H](Nc1nc2c(c(=O)n1N(C)C)CN(C(=O)c1ccc(C#N)cc1F)CC2)c1ccc(C(F)(F)F)cc1`, the inhibition result in assay [1] and in assay [2] was “Active” each time.

For `CC#CCn1c(N[C@@H](C)c2ccc(C(F)(F)F)cc2)nc2c(c1=O)CN(C(=O)c1cnc3ccccc3c1)CC2`, the inhibition result in assay [1] and in assay [2] was “Active” each time.

In the case of `C[C@H](Nc1nc2c(c(=O)n1N(C)C)CN(C(=O)COc1ccc(Cl)cc1)CC2)c1ccc(C(F)(F)F)cc1`, the inhibition entry in assay [1] and in assay [2] was “Active” in each case.

As for `C#CCCn1c(N[C@@H](C)c2ccc(C(F)(F)F)cc2)nc2c(c1=O)CN(C(=O)c1ccc(C#N)cc1)CC2`, the inhibition entry in assay [1] and in assay [2] was “Active” each time.

For the compound `CCOc1ccc(CNc2nc3c(c(=O)n2OC)CN(C(=O)c2ccc(C#N)cc2F)CC3)cc1`, the inhibition entry in assay [1] and in assay [2] was “Active” throughout.

Take `CC#CCn1c(N[C@@H](C)c2ccc(C(F)(F)F)cc2)nc2c(c1=O)CN(C(=O)c1ccc(C#N)cc1)CC2`: the inhibition entry in assay [1] and in assay [2] was “Active” throughout.

As to `C#CCn1c(N[C@@H](C)c2ccc(C(F)(F)F)cc2)nc2c(c1=O)CN(C(=O)c1ccc(C#N)cc1F)CC2`, the inhibition entry in assay [1] and in assay [2] was “Active” in each case.

With `CC#CCn1c(N[C@@H](C)c2ccc(C(F)(F)F)cc2)nc2c(c1=O)CN(C(=O)c1ccc3ccccc3n1)CC2`, the inhibition result in assay [1] and in assay [2] was “Active” in each case.

Regarding `COn1c(NC(CCC(F)(F)F)c2ccc(Cl)cc2)nc2c(c1=O)CN(C(=O)c1ccc(Cl)cc1)CC2` (configuration not stated), the inhibition entry in assay [1] and in assay [2] was “Active” in each case.

`COn1c(N[C@@H](C)c2ccc(C(F)(F)F)cc2)nc2c(c1=O)CN(C(=O)c1ccc(C#N)cc1F)CC2`: the inhibition result in assay [1] and in assay [2] was “Active” throughout.

Consider `C#CCCn1c(N[C@@H](C)c2ccc(C(F)(F)F)cc2)nc2c(c1=O)CN(C(=O)c1nc3ccccc3[nH]1)CC2`, for which the inhibition entry in assay [1] and in assay [2] was “Active” throughout.

With `COn1c(N[C@@H](C)c2ccc(C(F)(F)F)cc2)nc2c(c1=O)CN(C(=O)c1ccc(Cl)c(C)c1)CC2`, the inhibition entry in assay [1] and in assay [2] was “Active” each time.

Take `CC#CCn1c(N[C@@H](C)c2ccc(C(F)(F)F)cc2)nc2c(c1=O)CN(C(=O)c1ccc(C)c(C)c1)CC2`: the inhibition result in assay [1] and in assay [2] was “Active” throughout.

As for `C#CCn1c(N[C@@H](C)c2ccc(C(F)(F)F)cc2)nc2c(c1=O)CN(C(=O)c1ccc(Cl)cc1)CC2`, the inhibition entry in assay [1] and in assay [2] was “Active” each time.

Regarding `C#CCn1c(N[C@@H](C)c2ccc(Cl)cc2)nc2c(c1=O)CN(C(=O)c1ccc(Cl)cc1)CC2`, the inhibition entry in assay [1] and in assay [2] was “Active” in each case.

As for `COn1c(NC(c2ccc(Cl)cc2)C(C)C)nc2c(c1=O)CN(C(=O)c1ccc(Cl)cc1)CC2` (configuration not stated), the inhibition entry in assay [1] and in assay [2] was “Active” each time.

Turning to `C[C@H](Nc1nc2c(c(=O)n1N(C)C)CN(C(=O)COc1ccc(Cl)cc1)CC2)c1ccc(Cl)cc1`, the inhibition entry in assay [1] and in assay [2] was “Active” in each case.

Turning to `COn1c(N[C@@H](C)c2ccc(Cl)cc2)nc2c(c1=O)CN(C(=O)c1ccc(Cl)cc1)CC2`, the inhibition entry in assay [1] and in assay [2] was “Active” in each case.

In the case of `CC#CCn1c(N[C@@H](C)c2ccc(C(F)(F)F)cc2)nc2c(c1=O)CN(C(=O)c1ccc(-n3ccnc3)cc1)CC2`, the inhibition result in assay [1] and in assay [2] was “Active” each time.

Regarding `COn1c(N[C@@H](C)c2ccc(C(F)(F)F)cc2)nc2c(c1=O)CN(C(=O)c1cc3cc(Cl)ccc3o1)CC2`, the inhibition entry in assay [1] and in assay [2] was “Active” each time.

With `CC#CCn1c(N[C@@H](C)c2ccc(C(F)(F)F)cc2)nc2c(c1=O)CN(C(=O)c1ccc(Cl)cc1)CC2`, the inhibition result in assay [1] and in assay [2] was “Active” in each case.

Regarding `C[C@H](Nc1nc2c(c(=O)n1N(C)C)CN(C(=O)c1c(F)cc(F)cc1F)CC2)c1ccc(C(F)(F)F)cc1`, the inhibition entry in assay [1] and in assay [2] was “Active” each time.

As to `CC#CCn1c(N[C@@H](C)c2ccc(C(F)(F)F)cc2)nc2c(c1=O)CN(C(=O)c1cc3ccccn3n1)CC2`, the inhibition result in assay [1] and in assay [2] was “Active” each time.

`CC#CCn1c(N[C@@H](C)c2ccc(C(F)(F)F)cc2)nc2c(c1=O)CN(C(=O)c1ccc(OC)cc1)CC2`: the inhibition result in assay [1] and in assay [2] was “Active” throughout.

As to `C#CCCn1c(N[C@@H](C)c2ccc(C(F)(F)F)cc2)nc2c(c1=O)CN(C(=O)c1ccc(C(=O)N(C)C)cc1)CC2`, the inhibition result in assay [1] and in assay [2] was “Active” throughout.

Turning to `CCOc1ccc(C(=O)N2CCc3nc(N[C@@H](C)c4ccc(C(F)(F)F)cc4)n(OC)c(=O)c3C2)cc1`, the inhibition result in assay [1] and in assay [2] was “Active” throughout.

In the case of `COn1c(NCc2ccc(Cl)cc2)nc2c(c1=O)CN(C(=O)c1ccc(Cl)cc1)CC2`, the inhibition entry in assay [1] and in assay [2] was “Active” in each case.

As to `COc1cc(Cl)ccc1C(=O)N1CCc2nc(N[C@@H](C)c3ccc(C(F)(F)F)cc3)n(OC)c(=O)c2C1`, the inhibition entry in assay [1] and in assay [2] was “Active” each time.

As for `C#CCCn1c(N[C@@H](C)c2ccc(C(F)(F)F)cc2)nc2c(c1=O)CN(C(=O)c1ccc(C)cc1)CC2`, the inhibition entry in assay [1] and in assay [2] was “Active” each time.

Regarding `CCC(Nc1nc2c(c(=O)n1OC)CN(C(=O)c1ccc(Cl)cc1)CC2)c1ccc(Cl)cc1` (configuration not stated), the inhibition entry in assay [1] and in assay [2] was “Active” each time.
